Measured values taken from US12016858B2, “Methods for the treatment of abnormal involuntary movement disorders” (AUSPEX PHARMACEUTICALS, INC., priority 2015, dated 2024).

Key:
[1] = test system: subjects with chorea associated with HD; details: in vivo
Method: First-HD was a randomized, double-blind, placebo-controlled, parallel-group study designed to evaluate the efficacy, safety, and tolerability of deutetrabenazine in subjects with chorea associated with HD. This trial was conducted in the United States and Canada, in collaboration with the Huntington Study Group.
Subjects in First-HD were treated with deutetrabenazine or placebo, starting at 6 mg once per day and titrating weekly to doses of up to 24 mg twice per day (48 mg total maximum daily dose). A total of 90 subjects (45 in each group) were enrolled for evaluation over 13 weeks. Subjects were individually titrated to an optimal dose over up to eight weeks, received maintenance therapy at the optimal dose for four weeks, and were taken off study medication in the final week of the trial.
The primary efficacy endpoint for the study was the change from baseline to maintenance therapy (average of Week 9 and Week 12 values) in the maximal chorea score of the UHDRS. The total maximal score, or TMC, is a clinician-based, quantitative assessment of chorea in seven body regions: face, mouth/tongue, trunk, and the four extremities, with higher scores representing more severe chorea.
The total motor score (TMS) of the UHDRS was prespecified as an additional efficacy endpoint in First-HD. The TMS assesses all the motor features of HD, including items addressing characteristic motor abnormalities other than chorea, such as dystonia, gait, parkinsonism, and postural instability.
The clinical relevance of the change in the TMC score was assessed with four prespecified secondary endpoints that assessed changes from baseline to end of treatment (Week 12). These secondary endpoints were tested in a hierarchical manner: • 1. Treatment success based on patient global impression of change (PGIC); • 2. Treatment success based on clinical global impression of change (CGIC); • 3. Physical Functioning Scale of the SF-36; and • 4. Balance, as assessed by the Berg Balance Test (BBT).
The PGIC and CGIC are single-item questionnaires that ask the subject and investigator, respectively, to assess a subject's overall HD symptoms at specific visits after initiating therapy. Both assessments use a 7-point Likert Scale, with responses ranging from Very Much Worse (−3) to Very Much Improved (+3) to assess overall response to therapy.
Adverse events (AE) and their potential association with treatment were also monitored. Categories of AEs of particular focus included those known to be associated with tetrabenazine use: • Psychiatric disorders: insomnia, depression/agitated depression, abnormal dreams, agitation, anxiety, suicidal ideation, compulsions, impulsive behavior, and sleep disorders; • Nervous system disorders: somnolence, dizziness, akathisia/restlessness, cognitive disorders, drooling, dyskinesia, migraine, headache, loss of consciousness, and syncope (fainting); • General disorders: irritability, fatigue, gait disturbance, chest pain, and hangover; and • Gastrointestinal disorders: diarrhea, dry mouth, constipation, nausea, upper abdominal pain, dyspepsia, frequent bowel movements, gastrointestinal pain, vomiting, dysphagia, flatulence, and salivary hypersecretion.
In addition to AE reporting, rating scales were used to monitor for potential subclinical toxicity due to excessive monoamine depletion. […] These scales applied in First-HD included the Hospital Anxiety and Depression Scale (HADS), the Columbia Suicide Severity Rating Scale (C-SSRS), the Swallowing Disturbance Questionnaire (SDQ), the Unified Parkinson's Disease Rating Scale (dysarthria item) (UPDRS [dysarthria]), the Barnes Akathisia Rating Scale (BARS), and the Epworth Sleepiness Scale (ESS). In addition, the UHDRS, which includes cognitive, behavioral, and functional measures, was performed at key visits.

[2] = test system: motor and phonic tics of TS; test: Open-label pilot study of safety and efficacy in TS patients; format: in vivo, human; design: key to VTSS, Mean / TTS, Mean / GSS, Mean / MTSS, Median / TTS, Median / GSS, Median / MTSS change, Mean / VTSS change, Mean / TTS change, Mean / MTSS change, Median / VTSS change, Median / TTS change, Median: Yale Global Tic Severity Scale (YGTSS) scores
Excerpt: An open-label, pilot study was undertaken 1) to evaluate the safety and tolerability of treatment with deutetrabenazine, and 2) to evaluate the efficacy of deutetrabenazine to suppress the motor and phonic tics of TS. Study Design. Inclusion criteria (at screening, unless otherwise indicated) included: 12 to 18 years of age, inclusive; […] Throughout the study, an independent rater assessed tic severity with the Yale Global Tic Severity Scale (YGTSS) and tic impact with the TS-Clinical Global Impression (TS-CGI) scale. The independent rater will not have knowledge of the subject's clinical care, including medications or reports of adverse events (AEs). Dose regimen. Study drug was available in five dose strengths: 6, 9, 12, 15, and 18 mg, all of which were identical in size, shape, and color (white). […] Subjects then maintained that dose level for the duration of the treatment period. Subjects who were receiving CBIT (Comprehensive Behavioral Intervention for Tics) therapy were permitted to participate as long as therapy had been stable/ongoing for at least 4 weeks before Screening and was expected to be stable for the duration of the trial. Study drug was dosed as follows. All treatment doses were administered with meals. A daily dose of 6 mg was given once a day in the morning, and daily doses of 12 mg and higher were administered twice daily in divided doses, approximately 10 hours apart during the day. The starting dose was deutetrabenazine 6 mg in the AM. The dose of study drug was optionally adjusted weekly in increments of 6 mg/day during the titration period to identify a dose level that suppressed tics and was well tolerated. Dose reductions were in increments of 6 mg/day. In this study, the maximum total daily dose of deutetrabenazine at the Week 5 visit or later was 36 mg (18 mg twice daily [BID]). Titration period (6 weeks). […] Safety evaluations during titration included assessment of vital signs, monitoring for adverse events, and rating scales for depression and suicidal ideation and behavior. In-person study visits were scheduled at Weeks 2 and 4 after initiating therapy and telephone contacts were scheduled for Weeks 1, 3, 5, and 6 after initiating therapy in order to assess tic suppression and adverse events. The YGTSS and TS-CGI were assessed by an independent rater. The Investigator, in consultation with the subject and parent/guardian, determined when an adequate level of tic suppression had been achieved. The dose of deutetrabenazine was increased on a weekly basis until there was adequate suppression of tics, the subject experienced a protocol-defined “clinically significant” AE (defined as an AE that is related to study medication and either (1) moderate or severe in intensity or (2) meets the criteria for a serious adverse event [SAE]), or the maximal allowable dose was reached. Although dose adjustments could made up to and including the Week 5 phone call, if a stable dose was reached before then, the subject continued on that dose for the remainder of the titration period and throughout maintenance dosing. Once adequate suppression of tics had been achieved, the dose of study drug was not increased further. If a subject experienced a “clinically significant” AE that was attributed to study drug, the Investigator used his or her judgment to determine if a dose reduction or suspension was necessary. Dose adjustments were to be made based on all available information, including the subject and parent/guardian reports of AEs and tic suppression, the clinical assessment of safety and efficacy by the Investigator, as well as information from rating scales. At the end of the titration period, the subject's dose was established for the maintenance period. Maintenance period (2 weeks). Subjects continued to receive their maintenance dose over the next 2 weeks, although dose reductions for AEs were allowed. […]

[2H]C([2H])([2H])Oc1cc2c(cc1OC([2H])([2H])[2H])C1CC(=O)C(CC(C)C)CN1CC2 (stereo not drawn) [deutetrabenazine, (RR, SS)-1,3,4,6,7,11b-hexahydro-9,10-di(methoxy-d3)-3-(2-methylpropyl)-2H-benzo[a]quinolizin-2-one]
deaths in the study [1]: no deaths
TS-CGI mean score ([2]; Week 8, from a baseline of 4.7, 7 point scale, lower is better): 3.7
GSS, Mean ([2]; Wk 2): 59.4
GSS, Median ([2]; Wk 2): 57
MTSS, Mean ([2]; Wk 2): 15.9
MTSS, Median ([2]; Wk 2): 16
TTS, Mean ([2]; Wk 2): 29.4
TTS, Median ([2]; Wk 2): 28
VTSS, Mean ([2]; Wk 2): 13.5
VTSS, Median ([2]; Wk 2): 14
GSS, Mean ([2]; Wk 4): 51.1
GSS, Median ([2]; Wk 4): 51
MTSS, Mean ([2]; Wk 4): 14.2
MTSS, Median ([2]; Wk 4): 14
TTS, Mean ([2]; Wk 4): 26.3
TTS, Median ([2]; Wk 4): 27
VTSS, Mean ([2]; Wk 4): 12.1
VTSS, Median ([2]; Wk 4): 12
GSS, Mean ([2]; Wk 8): 45.1
GSS, Median ([2]; Wk 8): 47
Impairment, Mean ([2]; Wk 8): 22.9
Impairment, Median ([2]; Wk 8): 20
MTSS, Mean ([2]; Wk 8): 12.0
MTSS, Median ([2]; Wk 8): 11
TTS, Mean ([2]; Wk 8): 21.2
TTS, Median ([2]; Wk 8): 23
VTSS, Mean ([2]; Wk 8): 9.2
VTSS, Median ([2]; Wk 8): 9
GSS, Mean ([2]; Wk 9 (washout)): 51.7
GSS, Median ([2]; Wk 9 (washout)): 51
MTSS, Mean ([2]; Wk 9 (washout)): 13.9
MTSS, Median ([2]; Wk 9 (washout)): 14.5
TTS, Mean ([2]; Wk 9 (washout)): 25.6
TTS, Median ([2]; Wk 9 (washout)): 26
VTSS, Mean ([2]; Wk 9 (washout)): 11.7
VTSS, Median ([2]; Wk 9 (washout)): 10.5
PGIC mean improvement ([2]; after 8 weeks of treatment, 7-point scale, preliminary): 1.8 points
patients much or very much improved (PGIC) ([2]; after 8 weeks of treatment, preliminary): about 75%
motor and vocal tics (FIG. 9) ([2]; baseline through week 8): lowered (improved) both motor and vocal tics
GSS change, Mean ([2]; Δ B-Wk 2): −7.7
GSS change, Median ([2]; Δ B-Wk 2): 0
MTSS change, Mean ([2]; Δ B-Wk 2): −1.9
MTSS change, Median ([2]; Δ B-Wk 2): 0
TTS change, Mean ([2]; Δ B-Wk 2): −2.9
TTS change, Median ([2]; Δ B-Wk 2): 0
VTSS change, Mean ([2]; Δ B-Wk 2): −1.0
VTSS change, Median ([2]; Δ B-Wk 2): 0
GSS change, Mean ([2]; Δ B-Wk 9): −14.7
GSS change, Median ([2]; Δ B-Wk 9): −10.5
MTSS change, Mean ([2]; Δ B-Wk 9): −3.4
MTSS change, Median ([2]; Δ B-Wk 9): −3
TTS change, Mean ([2]; Δ B-Wk 9): −6.3
TTS change, Median ([2]; Δ B-Wk 9): −5
VTSS change, Mean ([2]; Δ B-Wk 9): −2.9
VTSS change, Median ([2]; Δ B-Wk 9): −2.5
